# From PubChem BioAssay AID2060898 (Molecular Pharmacology Branch, DTP, NCI, 2025)
# pIC50: −log10 of the molar value.
# Tested on: 616215-338-R-J1-PDC complex spheroid viability
# Test: Anticancer human tumor 616215-338-R-J1-PDC patient-derived colon adenocarcinoma cell line growth inhibition [RAS]
# Details: for pIC50: curve of first compound; for viability, T/C: stronger effect = lower value
# Excerpt: RAS pathway inhibitors in Combinations in Complex Spheroids
# A high-throughput screen of multi-cell type tumor spheroids was designed to identify active combinations of RAS pathway inhibitors and targeted small molecules. Complex spheroids include a stromal component modeled by human endothelial cells (HUVEC) and fibroblasts modeled by human mesenchymal stem cells (MSCs). The concentration ranges selected for each drug and investigational agent were based upon clinically achievable concentrations if the clinical Cmax of the agent was known.
# Compounds. The drugs and investigational agents: abemaciclib (NSC768073), cobimetinib (NSC768068), divarasib (GDC6063, NSC841802), docetaxel (NSC628503), GDC-1971 (RLY-1971, NSC841576), gemcitabine (NSC613327), inavolisib (NSC800729), ipatasertib (NSC767898), KB-0742 (NSC834161), MRTX-1133 (NSC836407), osimertinib (NSC779217), RMC-4630 (NSC839698), RMC-6236 (NSC851965), RMC-6291 (NSC852671), Ro-3306 (NSC812927), sapanisertib (NSC764658), SN-38 (NSC673596), staurosporine (NSC755774), SY5609 (NSC837396), and tovorafenib (DAY101, NSC766906), were obtained from the National Cancer Institute (NCI) Developmental Therapeutics Program Chemical Repository. The FDA-approved anticancer drug set is available from the NCI Developmental Therapeutics Program. […] The stock solutions were prepared in dimethyl sulfoxide (DMSO, Sigma-Aldrich, St. Louis, MO, cat. D2650) at 800-fold the tested concentration and stored at -70 degrees C prior to their use. All drugs and investigational agents were tested over a range starting from a high concentration at or near the clinical Cmax and decreasing in half-log increments. If the clinical Cmax for an agent had not been determined, the highest concentration tested was 10 microM.
# Cell Culture. All cells were maintained in an incubator at 37 degrees C and 5% CO2 with 95% humidity. The PDC lines were cultured according to standard operating procedures established by the NCI PDMR. All PDCs were thawed and cultured in Matrigel-coated flasks prepared with a working solution of 1X Ham's F-12 nutrient mix, without supplementation (Invitrogen, Waltham, MA, cat. 11765054), 100 U/mL penicillin-streptomycin (Invitrogen, cat. 15140122), and 2.5% Matrigel (Corning Inc., Corning, NY, cat. 354248) for the first three passages. The 362531-283-R-J2-PDC and 782815-120-R-J1-PDC lines were cultured in 6C/Colon 1B media, which includes advanced DMEM/F-12 (Thermo Fisher Scientific, cat. 12634028), 10 mM HEPES (Thermo Fisher Scientific, cat. 15630080), 1X GlutaMAX supplement (Thermo Fisher Scientific, cat. 35050061), 0.1 mg/mL primocin (InvivoGen, San Diego, CA, cat. ant-pm-2), 10% defined fetal bovine serum, heat inactivated (HyClone Laboratories Inc., Logan, UT, cat. SH30070.03HI), 50% L-WRN conditioned media (ATCC, cat. CRL-3276), 1.25 mM N-Acetyl-L-cysteine (Sigma-Aldrich, cat. A9165), 10 mM nicotinamide (Sigma-Aldrich, cat. N0636), 1X B-27 supplement (Thermo Fisher Scientific, cat. 17504044), 1X N-2 supplement (Thermo Fisher Scientific, cat. 17502048), 50 ng/mL human EGF (Thermo Fisher Scientific, cat. PHG0311), and 10 microM Y-27632 dihydrochloride (Tocris Bioscience, cat. 1254). The K12877-001-R-J1-PDC line was cultured in 6I media, which includes all 6C/Colon 1B media plus 10 ng/mL human FGF-10 (PeproTech, cat. 100-26), 1 ng/mL human FGF-2 (PeproTech, cat. 100-18B), 1 µM prostaglandin E2 (Tocris Bioscience, cat. 2296), […] hydrocortisone (Sigma-Aldrich, cat. H4001), and […] bovine insulin (Sigma-Aldrich, cat. I6634). The K86415-001-R-J1-PDC line was cultured in 6D media, which includes all 6C/Colon 1B media components minus the L-WRN conditioned media. The 485176-168-R4-J1-PDC was cultured in PANC media, which includes all 6C/Colon 1B media plus 100 ng/mL human FGF-10 (PeproTech, cat. 100-26), 500 nM SB-431542 (Selleckchem, cat. S1067), and 10 nM gastrin (Tocris Bioscience, cat. 3006). […]
# [1] = second compound 0.0316 µM, first compound 0.0316 µM
# [2] = second compound 0.0316 µM, first compound 0.1 µM
# [3] = second compound 0.1 µM, first compound 0.0316 µM
# [4] = second compound 0.1 µM, first compound 0.1 µM
# [5] = second compound 0.316 µM, first compound 0.0316 µM
# [6] = second compound 0.316 µM, first compound 0.1 µM
# [7] = second compound 1 µM, first compound 0.0316 µM
# [8] = second compound 1 µM, first compound 0.1 µM
# [9] = second compound 3.16 µM, first compound 0.0316 µM
# [10] = second compound 3.16 µM, first compound 0.1 µM
# [11] = second compound 10 µM, first compound 0.0316 µM
# [12] = second compound 10 µM, first compound 0.1 µM
# 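Also: spheroids exposed to agents for seven days before viability readout.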
# 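For viability, T/C in this document: 100% = DMSO vehicle control viability.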
smiles,measurement,setting,value
CC(C)n1nc(-c2ccc3oc(N)nc3c2)c2c(N)ncnc21 + C#Cc1c(F)ccc2cc(O)cc(-c3ncc4c(N5CC6CCC(C5)N6)nc(OCC56CCCN5CC(F)C6)nc4c3F)c12,pIC50,second compound 0.0316 µM,< 7.00
same,pIC50,second compound 0.1 µM,< 7.00
same,pIC50,second compound 0.316 µM,< 7.00
same,pIC50,second compound 1 µM,< 7.00
same,pIC50,second compound 3.16 µM,7.22
same,pIC50,second compound 10 µM,7.86
same,"viability, T/C","second compound 0.0316 µM, first compound 0.000316 µM",113%
same,"viability, T/C","second compound 0.0316 µM, first compound 0.001 µM",119%
same,"viability, T/C","second compound 0.0316 µM, first compound 0.00316 µM",112%
same,"viability, T/C","second compound 0.0316 µM, first compound 0.01 µM",114%
same,"viability, T/C",[1],104%
same,"viability, T/C",[2],57.1%
same,"viability, T/C","second compound 0.1 µM, first compound 0.000316 µM",116%
same,"viability, T/C","second compound 0.1 µM, first compound 0.001 µM",107%
same,"viability, T/C","second compound 0.1 µM, first compound 0.00316 µM",113%
same,"viability, T/C","second compound 0.1 µM, first compound 0.01 µM",106%
same,"viability, T/C",[3],107%
same,"viability, T/C",[4],58%
same,"viability, T/C","second compound 0.316 µM, first compound 0.000316 µM",116%
same,"viability, T/C","second compound 0.316 µM, first compound 0.001 µM",111%
same,"viability, T/C","second compound 0.316 µM, first compound 0.00316 µM",112%
same,"viability, T/C","second compound 0.316 µM, first compound 0.01 µM",112%
same,"viability, T/C",[5],99.9%
same,"viability, T/C",[6],54.9%
same,"viability, T/C","second compound 1 µM, first compound 0.000316 µM",118%
same,"viability, T/C","second compound 1 µM, first compound 0.001 µM",111%
same,"viability, T/C","second compound 1 µM, first compound 0.00316 µM",121%
same,"viability, T/C","second compound 1 µM, first compound 0.01 µM",116%
same,"viability, T/C",[7],111%
same,"viability, T/C",[8],54.2%
same,"viability, T/C","second compound 3.16 µM, first compound 0.000316 µM",86.8%
same,"viability, T/C","second compound 3.16 µM, first compound 0.001 µM",105%
same,"viability, T/C","second compound 3.16 µM, first compound 0.00316 µM",98.3%
same,"viability, T/C","second compound 3.16 µM, first compound 0.01 µM",77.9%
same,"viability, T/C",[9],67.9%
same,"viability, T/C",[10],37.2%
same,"viability, T/C","second compound 10 µM, first compound 0.000316 µM",76.8%
same,"viability, T/C","second compound 10 µM, first compound 0.001 µM",64.2%
same,"viability, T/C","second compound 10 µM, first compound 0.00316 µM",68.2%
same,"viability, T/C","second compound 10 µM, first compound 0.01 µM",49.2%
same,"viability, T/C",[11],44.2%
same,"viability, T/C",[12],27.9%
C[C@@H](NC(=O)c1ncnc(N)c1Cl)c1ncc(C(=O)Nc2cc(C(F)(F)F)c(Cl)cn2)s1 + C#Cc1c(F)ccc2cc(O)cc(-c3ncc4c(N5CC6CCC(C5)N6)nc(OCC56CCCN5CC(F)C6)nc4c3F)c12,pIC50,second compound 0.0316 µM,< 5.00
same,pIC50,second compound 0.1 µM,< 5.00
same,pIC50,second compound 0.316 µM,5.01
same,pIC50,second compound 1 µM,5.22
same,pIC50,second compound 3.16 µM,5.44
same,pIC50,second compound 10 µM,6.12
same,"viability, T/C",[1],120%
same,"viability, T/C",[2],109%
same,"viability, T/C","second compound 0.0316 µM, first compound 0.316 µM",109%
same,"viability, T/C","second compound 0.0316 µM, first compound 1 µM",109%
same,"viability, T/C","second compound 0.0316 µM, first compound 3.16 µM",86.8%
same,"viability, T/C","second compound 0.0316 µM, first compound 10 µM",55.2%
same,"viability, T/C",[3],104%
same,"viability, T/C",[4],111%
same,"viability, T/C","second compound 0.1 µM, first compound 0.316 µM",108%
same,"viability, T/C","second compound 0.1 µM, first compound 1 µM",109%
same,"viability, T/C","second compound 0.1 µM, first compound 3.16 µM",90.8%
same,"viability, T/C","second compound 0.1 µM, first compound 10 µM",52.2%
same,"viability, T/C",[5],111%
same,"viability, T/C",[6],113%
same,"viability, T/C","second compound 0.316 µM, first compound 0.316 µM",121%
same,"viability, T/C","second compound 0.316 µM, first compound 1 µM",117%
same,"viability, T/C","second compound 0.316 µM, first compound 3.16 µM",87.9%
same,"viability, T/C","second compound 0.316 µM, first compound 10 µM",49%
same,"viability, T/C",[7],109%
same,"viability, T/C",[8],112%
same,"viability, T/C","second compound 1 µM, first compound 0.316 µM",108%
same,"viability, T/C","second compound 1 µM, first compound 1 µM",91.5%
same,"viability, T/C","second compound 1 µM, first compound 3.16 µM",68.3%
same,"viability, T/C","second compound 1 µM, first compound 10 µM",35.8%
same,"viability, T/C",[9],99.3%
same,"viability, T/C",[10],111%
same,"viability, T/C","second compound 3.16 µM, first compound 0.316 µM",72.3%
same,"viability, T/C","second compound 3.16 µM, first compound 1 µM",82.2%
same,"viability, T/C","second compound 3.16 µM, first compound 3.16 µM",52.2%
same,"viability, T/C","second compound 3.16 µM, first compound 10 µM",24.3%
same,"viability, T/C",[11],84.3%
same,"viability, T/C",[12],69.7%
same,"viability, T/C","second compound 10 µM, first compound 0.316 µM",67.2%
same,"viability, T/C","second compound 10 µM, first compound 1 µM",46.4%
same,"viability, T/C","second compound 10 µM, first compound 3.16 µM",24.8%
same,"viability, T/C","second compound 10 µM, first compound 10 µM",18.7%
